Assay [1] has as its system HCV subgenomic replicon in Huh-7 cells. The assay can be described thus: Replicon assay, EC50 luciferase readout. It is filed as cell-based, hepatitis C virus (HCV). As to conditions: Hepatitis C virus, Huh-7, 72 h, single value, or second value of a pair x:y. The procedure, abridged: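 Huh-7 cells carrying a subgenomic HCV replicon (NS3-NS5b, firefly luciferase-neo fusion) were treated with compound for 72 h at 37°C, 5% CO2. EC50 derived from Bright-Glo luciferase signal as a proxy for HCV RNA; cell viability measured in parallel by Alamar blue.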

In assay [2] the target is T1, HCV NS3 protease (full length NS34a) (Hepatitis C virus genotype 1b, UniProt P26663).
T1 construct: The protease activity of the full length NS34a was measured using a FRET-based assay; made in house
The assay can be described thus: HCV NS3 protease assay (FRET, full length NS34a). The format is biochemical. The procedure, abridged: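 Full-length NS34a incubated with compound and an NS4AB cleavage-site FRET peptide (QXL520 quencher, 5-FAMsp fluorophore) in 50 mM Tris pH8, 20 mM DTT, 1% CHAPS, 10% glycerol, 5% DMSO. Fluorescence followed for 30 minutes at room temperature; IC50 from initial rates of replicate progress curves.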

Where [3] appears, read: Huh-7 replicon cells, 72 h, read-out: Activity EC50 (μM) (EC50 luciferase readout).
Where [4] appears, read: protease activity of full length NS34a, FRET peptide substrate, read-out: Activity IC50.
Setting [5] is: IC50 values of 10-150 μM against the protease activity of the full length NS34a, or at least 40% inhibition of protease activity at a concentration of 100 μM.

Each structure is given as a SMILES string. pIC50: −log10 of the molar value. Structures can show the parent of a compound that is named as a salt. Where two headings read alike, the source gives them in different places.

T1 sequence (P26663 1658-1711): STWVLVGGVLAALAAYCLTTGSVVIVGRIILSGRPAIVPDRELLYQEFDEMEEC
T1 sequence (P26663 1027-1657): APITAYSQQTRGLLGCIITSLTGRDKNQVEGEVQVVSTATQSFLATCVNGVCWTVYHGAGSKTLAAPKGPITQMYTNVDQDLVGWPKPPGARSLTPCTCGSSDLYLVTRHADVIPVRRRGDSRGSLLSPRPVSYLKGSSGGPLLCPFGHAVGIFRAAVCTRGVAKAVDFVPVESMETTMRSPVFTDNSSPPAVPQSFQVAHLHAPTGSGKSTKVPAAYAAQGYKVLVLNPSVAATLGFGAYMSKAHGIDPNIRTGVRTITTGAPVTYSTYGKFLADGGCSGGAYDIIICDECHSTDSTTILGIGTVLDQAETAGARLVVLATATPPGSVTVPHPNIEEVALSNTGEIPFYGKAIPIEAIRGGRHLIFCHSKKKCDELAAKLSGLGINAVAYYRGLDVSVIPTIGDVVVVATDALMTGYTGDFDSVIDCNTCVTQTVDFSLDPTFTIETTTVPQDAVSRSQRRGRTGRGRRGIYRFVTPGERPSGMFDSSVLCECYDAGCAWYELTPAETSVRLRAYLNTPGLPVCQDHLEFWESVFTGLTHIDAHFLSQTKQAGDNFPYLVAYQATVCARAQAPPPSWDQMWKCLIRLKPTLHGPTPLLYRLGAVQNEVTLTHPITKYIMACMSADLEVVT

For orientation: EC50 means the concentration that produces a half-maximal response. Usually pIC50 stands for −log10 of the IC50, conventionally taken in molar units. For `N[C@H](CC1CCNCC1)c1ccc(F)c(Oc2ccccc2)c1F` [Example 82], the EC50 in assay [1] (setting [3]) was 0.79 µM. The pIC50 in assay [2] (setting [4]) was 5.72.
With `C[C@@H](CC(N)=O)N[C@H](CC1CCNCC1)c1ccc(F)c(Oc2ccccc2)c1F` [Example 84], the 50% effective concentration (EC50) in assay [1] (setting [3]) came out at 18 µM. In addition, in assay [2] (setting [4]), the pIC50 was 6.35.
For the compound `C[C@H](CC(N)=O)N[C@H](CC1CCNCC1)c1ccc(F)c(Oc2ccccc2)c1F` [Example 85], the concentration giving a half-maximal response (EC50) in assay [1] (setting [3]) amounted to 18 µM. In assay [2] (setting [5]), this compound gave a pIC50 of 3.82 to 5.00.
Taken in the same sequence, the figures for `OCCN[C@H](CC1CCNCC1)c1ccc(F)c(Oc2ccccc2)c1F` [Example 87B, 2-[(R)-1-(2,4-Difluoro-3-phenoxy-phenyl)-2-piperidin-4-yl-ethylamino]-ethanol] were 3.9 µM and 3.82 to 5.00.
On to `C[C@@H](CO)N[C@H](CC1CCNCC1)c1ccc(F)c(Oc2ccccc2)c1F` [Example 89], for which, in assay [1] (setting [3]), the concentration for a half-maximal effect (EC50) was determined as 1.8 µM. Also, the pIC50 in assay [2] (setting [4]) was 5.41.
For the compound `C[C@H](CO)N[C@H](CC1CCNCC1)c1ccc(F)c(Oc2ccccc2)c1F` [Example 90], the EC50 in assay [1] (setting [3]) stood at 0.36 µM. Moreover, in assay [2] (setting [5]), the pIC50 is 3.82 to 5.00.
Turning to `CC[C@H](NCCC(=O)NCC#N)c1ccc(F)c(Oc2ccccc2)c1F` [Example 91, N-Cyanomethyl-3-[(S)-1-(2,4-difluoro-3-phenoxy-phenyl)-propylamino]-propionamide.hydrochloride], in assay [1] (setting [3]), the half-maximal effective concentration (EC50) was over 10 µM. The pIC50 in assay [2] (setting [4]) was 5.62.
Taken in the same sequence, the figures for `CC[C@H](NCCC(=O)NCCO)c1ccc(F)c(Oc2ccccc2)c1F` [Example 92, 3-[(S)-1-(2,4-Difluoro-3-phenoxy-phenyl)-propylamino]-N-(2-hydroxy-ethyl)-propionamide.hydrochloride] were over 30 µM and 6.04.
For the compound `N[C@@H](CC1CCNCC1)c1ccc(F)c(Oc2ccccc2)c1F` [Example 93], the 50% effective concentration (EC50) in assay [1] (setting [3]) worked out at 1.8 µM. For the same compound, the negative-log IC50 (pIC50) in assay [2] (setting [4]) is 6.10.
On to `C[C@H](CO)N[C@@H](CC1CCNCC1)c1ccc(F)c(Oc2ccccc2)c1F` [Example 95B, (R)-2-[(S)-1-(2,4-Difluoro-3-phenoxy-phenyl)-2-piperidin-4-yl-ethylamino]-propan-1-ol.dihydrochloride], for which the EC50 in assay [1] (setting [3]) was 0.16 µM. For the same compound, in assay [2] (setting [4]), the negative logarithm of the IC50 (pIC50) is 6.39.
As to `C[C@@H](CO)N[C@@H](CC1CCNCC1)c1ccc(F)c(Oc2ccccc2)c1F` [Example 96], the 50% effective concentration (EC50) in assay [1] (setting [3]) came out at 0.24 µM. In addition, in assay [2] (setting [4]), the pIC50 was 5.17.
Take `CC[C@@H](NCCC(N)=O)c1ccc(Cl)c(Oc2ccccc2)c1F` [Example 97, 3-[(R)-1-(4-Chloro-2-fluoro-3-phenoxy-phenyl)-propylamino]-propionamide.hydrochloride]: the EC50 in assay [1] (setting [3]) is over 10 µM. In addition, the pIC50 in assay [2] (setting [4]) was 6.08.
Regarding `C[C@@H](CC(N)=O)N[C@@H](CC1CCNCC1)c1ccc(F)c(Oc2ccccc2)c1F` [Example 98], the concentration for a half-maximal effect (EC50) in assay [1] (setting [3]) was over 10 µM. Besides, the negative-log IC50 (pIC50) in assay [2] (setting [4]) was 5.80.
Consider `CC[C@H](NCCO)c1ccc(F)c(Oc2ccccc2)c1F` [Example 100, 2-[(S)-1-(2,4-Difluoro-3-phenoxy-phenyl)-propylamino]-ethanol.trifluoroacetate], for which the 50% effective concentration (EC50) in assay [1] (setting [3]) was over 18 µM. For the same compound, the negative-log IC50 (pIC50) in assay [2] (setting [4]) was 5.96.
In the case of `OCCN[C@@H](CC1CCNCC1)c1ccc(F)c(Oc2ccccc2)c1F` [Example 101], the EC50 in assay [1] (setting [3]) came to 0.23 µM. The negative logarithm of the IC50 (pIC50) in assay [2] (setting [4]) was 5.89.
Taken in the same sequence, the figures for `C[C@H](CC(=O)NCCN)NCc1ccc(Cl)c(Oc2ccccc2)c1F` [Example 107, (R)—N-(2-Amino-ethyl)-3-(4-chloro-2-fluoro-3-phenoxy-benzylamino)-butyramide.dihydrochloride] were over 10 µM and 6.66.
The matching figures for `Fc1ccc(CNc2ccncc2)c(F)c1Oc1ccccc1` [Example 110, (2,4-Difluoro-3-phenoxy-benzyl)-pyridin-4-yl-amine.hydrochloride]: 2.3 µM and 5.59.
The matching figures for `CC[C@@H](N)c1ccc(Cl)c(Oc2ccc(N)c(C)c2)c1F` [Example 112, 4-[3-((R)-1-Amino-propyl)-6-chloro-2-fluoro-phenoxy]-2-methyl-phenylamine.dihydrochloride]: over 10 µM and 6.80.
On to `CC[C@H](N)c1ccc(Cl)c(Oc2ccc(N)nc2)c1F` [Example 114], for which the half-maximal effective concentration (EC50) in assay [1] (setting [3]) is over 10 µM. In addition, in assay [2] (setting [4]), the pIC50 was 6.00.
As for `CC[C@@H](N)c1ccc(Cl)c(Oc2cccc(CO)c2)c1F` [Example 115], the EC50 in assay [1] (setting [3]) is over 10 µM. In addition, the negative logarithm of the IC50 (pIC50) in assay [2] (setting [4]) is 5.74.
In the case of `CC[C@@H](N[C@@H](C)CC(N)=O)c1ccc(Cl)c(Oc2cccc(CO)c2)c1F` [Example 116], in assay [1] (setting [3]), the EC50 amounted to 0.19 µM. Besides, the negative logarithm of the IC50 (pIC50) in assay [2] (setting [4]) was 6.89.
Turning to `CCC[C@@H](N)c1ccc(Cl)c(Oc2ccccc2)c1F` [Example 118], the EC50 in assay [1] (setting [3]) was 4.4 µM. Also, the pIC50 in assay [2] (setting [4]) is 5.77.
For `CCC[C@H](N)c1ccc(Cl)c(Oc2ccccc2)c1F` [Example 119], the concentration for a half-maximal effect (EC50) in assay [1] (setting [3]) was found to be 3.4 µM. Also, the pIC50 in assay [2] (setting [4]) was 6.49.
For the compound `CC[C@@H](N[C@H](C)CC(N)=O)c1ccc(Cl)c(Oc2ccc(N)nc2)c1F` [Example 123], the EC50 in assay [1] (setting [3]) came to 4.7 µM. Further, the negative-log IC50 (pIC50) in assay [2] (setting [4]) is 5.80.
Consider `CC[C@@H](N[C@@H](C)CC(N)=O)c1ccc(Cl)c(Oc2ccc(N)nc2)c1F` [Example 124], for which, in assay [1] (setting [3]), the 50% effective concentration (EC50) was found to be 0.28 µM. Besides, the pIC50 in assay [2] (setting [4]) is 6.96.
Taken in the same sequence, the figures for `CCC[C@@H](N[C@@H](C)CC(N)=O)c1ccc(Cl)c(Oc2ccccc2)c1F` [Example 125] were 0.38 µM and 6.64.
Consider `CC[C@@H](N[C@@H](C)CC(N)=O)c1ccc(Cl)c(Oc2ccc(N)c(C)c2)c1F` [Example 127], for which the concentration giving a half-maximal response (EC50) in assay [1] (setting [3]) came out at 0.014 µM. Moreover, in assay [2] (setting [4]), the pIC50 is 6.96.
Taken in the same sequence, the figures for `CC[C@@H](N[C@H](C)CC(N)=O)c1ccc(Cl)c(Oc2ccc(N)c(C)c2)c1F` [Example 128] were over 10 µM and 5.92.
Take `CC[C@@H](N[C@@H](C)CC(=O)NC)c1ccc(Cl)c(Oc2ccccc2)c1F` [Example 131A, (S)-3-[(R)-1-(4-Chloro-2-fluoro-3-phenoxy-phenyl)-propylamino]-N-methyl-butyramide.hydrochloride]: the 50% effective concentration (EC50) in assay [1] (setting [3]) was over 10 µM. Besides, the pIC50 in assay [2] (setting [4]) was 5.92.
In the case of `CC[C@@H](CC(N)=O)N[C@H](CC)c1ccc(Cl)c(Oc2ccccc2)c1F` [Example 134B, (S)-3-[(R)-1-(4-Chloro-2-fluoro-3-phenoxy-phenyl)-propylamino]-pentanoic acid amide.hydrochloride], the half-maximal effective concentration (EC50) in assay [1] (setting [3]) worked out at 0.4 µM. In addition, the pIC50 in assay [2] (setting [4]) was 7.08.
`CC[C@H](Nc1cccc2c1CNCC2)c1ccc(F)c(Oc2ccccc2)c1F` [Example 137]: the EC50 in assay [1] (setting [3]) is 7.8 µM. The negative-log IC50 (pIC50) in assay [2] (setting [4]) is 6.35.
`CC[C@@H](N[C@H](CC(N)=O)C(C)C)c1ccc(Cl)c(Oc2ccccc2)c1F` [Example 143]: the EC50 in assay [1] (setting [3]) was determined as 6.2 µM. Moreover, the pIC50 in assay [2] (setting [4]) is 6.27.
The matching figures for `CC[C@@H](N[C@@H](C)c1cn[nH]c1)c1ccc(Cl)c(Oc2ccccc2)c1F` [Example 145A, [(R)-1-(4-Chloro-2-fluoro-3-phenoxy-phenyl)-propyl]-[(S)-1-(1H-pyrazol-4-yl)-ethyl]-amine. dihydrochloride]: 9.5 µM and 5.13.
The matching figures for `CC[C@@H](N[C@@H](C)CC(=O)NN)c1ccc(Cl)c(Oc2ccccc2)c1F` [Example 154]: 17 µM and 6.74.
Turning to `CC[C@@H](N[C@@H](C)CC(=O)NOC)c1ccc(Cl)c(Oc2ccccc2)c1F` [Example 155], the EC50 in assay [1] (setting [3]) is over 10 µM. Also, in assay [2] (setting [4]), the negative-log IC50 (pIC50) was 5.77.
Taken in the same sequence, the figures for `CC[C@@H](N[C@H](C)c1cc[nH]c1)c1ccc(Cl)c(Oc2ccccc2)c1F` [Example 163, [(R)-1-(4-Chloro-2-fluoro-3-phenoxy-phenyl)-propyl]-1-[(R)-1-(1H-pyrrol-3-yl)-ethyl]-amine.dihydrochloride] were 0.94 µM and 5.60.
For `CC[C@@H](N[C@@H](C)c1cc[nH]c1)c1ccc(Cl)c(Oc2ccccc2)c1F` [Example 164], the EC50 in assay [1] (setting [3]) was found to be 2.3 µM. Moreover, the pIC50 in assay [2] (setting [4]) was 6.57.
With `CC[C@@H](N[C@H](CC(N)=O)C1CC1)c1ccc(Cl)c(Oc2ccccc2)c1F` [Example 165], the EC50 in assay [1] (setting [3]) was over 10 µM. In assay [2] (setting [5]), this compound had a pIC50 of 3.82 to 5.00.
Regarding `CC[C@@H](N[C@@H](C)CC(=O)NCC(N)=O)c1ccc(Cl)c(Oc2ccccc2)c1F` [Example 178], the half-maximal effective concentration (EC50) in assay [1] (setting [3]) was found to be 8 µM. Further, the pIC50 in assay [2] (setting [4]) was 5.66.
The matching figures for `CC[C@@H](N[C@@H](C)CC(N)=O)c1ccc(Cl)c(Oc2ccc(C#N)cc2)c1F` [Example 186]: 0.13 µM and 7.41.
For `CC[C@@H](N[C@@H](C)CC(N)=O)c1ccc(Cl)c(Oc2cccc(NS(C)(=O)=O)c2)c1F` [Example 196], the EC50 in assay [1] (setting [3]) is 0.27 µM. In addition, the negative logarithm of the IC50 (pIC50) in assay [2] (setting [4]) is 6.38.
Take `CC[C@@H](N[C@@H](C)CC(N)=O)c1ccc(Cl)c(Oc2ccc([N+](=O)[O-])cc2)c1F` [Example 201]: the 50% effective concentration (EC50) in assay [1] (setting [3]) was over 10 µM. The pIC50 in assay [2] (setting [4]) is 6.70.
In the case of `CC[C@@H](N[C@@H](C)CC(=O)N[C@H](C)CO)c1ccc(Cl)c(Oc2ccccc2)c1F` [Example 207], in assay [1] (read-out: Activity EC50 (μM) (EC50 luciferase readout), Huh-7 replicon cells, 72 h), the EC50 is over 10 µM. Also, the pIC50 in assay [2] (setting [4]) was 6.68.

Values taken from US20140288040A1, “SUBSTITUTED BENZYLAMINE COMPOUNDS, THEIR USE IN MEDICINE, AND IN PARTICULAR THE TREATMENT OF HEPATITIS C VIRUS (HCV) INFECTION” (ASTEX THERAPEUTICS LIMITED, priority 2011, published 2014).
